# Assay results as given in ChEMBL document CHEMBL1201862, “PubChem BioAssay data set” (2004).
#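 How tested: cells in 96-well plates exposed to compound for 48 hours at five concentrations. The concentration for 50% growth inhibition is given as GI50.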 Calls of active or inactive are those of the source. No stated cut-off is given here; in the data, active = GI50 up to about 1.1 µM and inactive = higher.
# How the values were obtained:
# Test in all cases: NCI tumour cell line growth inhibition, 48 h
# HOP-92 = system: HOP-92
# LOX IMVI = system: LOX IMVI
# DU-145 = system: DU-145
# HCC 2998 = system: HCC 2998
# OVCAR-5 = system: OVCAR-5
# OVCAR-8 = system: OVCAR-8
# CCRF-CEM = system: CCRF-CEM
# NCI/ADR-RES = system: NCI/ADR-RES
# MDA-MB-435 = system: MDA-MB-435
# MOLT-4 = system: MOLT-4
# SR = system: SR
# MCF7 = system: MCF7
# HCT-15 = system: HCT-15
# HCT-116 = system: HCT-116
# A549 = system: A549
# A498 = system: A498
# SK-OV-3 = system: SK-OV-3
# SF-539 = system: SF-539
# PC-3 = system: PC-3
# SK-MEL-28 = system: SK-MEL-28
Structure (SMILES),GI50 (HOP-92),GI50 (LOX IMVI),GI50 (DU-145),GI50 (HCC 2998),GI50 (OVCAR-5),GI50 (OVCAR-8),GI50 (CCRF-CEM),GI50 (NCI/ADR-RES),GI50 (MDA-MB-435),GI50 (MOLT-4),GI50 (SR),GI50 (MCF7),GI50 (HCT-15) [µM],GI50 (HCT-116),GI50 (A549),GI50 (A498),GI50 (SK-OV-3),GI50 (SF-539),GI50 (PC-3),GI50 (SK-MEL-28)
COc1ccc2c(c1)C1Oc3ccccc3CC1(O)CO2 (stereo not drawn),> 100 µM (inactive),> 100 µM (inactive),> 100 µM (inactive),> 100 µM (inactive),> 100 µM (inactive),> 100 µM (inactive),> 100 µM (inactive),> 100 µM (inactive),> 100 µM (inactive),> 100 µM (inactive),> 100 µM (inactive),> 100 µM (inactive),> 100,> 100 µM (inactive),> 100 µM (inactive),> 100 µM (inactive),> 100 µM (inactive),> 100 µM (inactive),> 100 µM (inactive),
CCc1nc(N)nc(N)c1-c1ccc2nnn(O)c2c1,> 100 µM (inactive),> 100 µM (inactive),> 100 µM (inactive),> 100 µM (inactive),> 100 µM (inactive),> 100 µM (inactive),> 100 µM (inactive),> 100 µM (inactive),> 100 µM (inactive),> 100 µM (inactive),> 100 µM (inactive),> 100 µM (inactive),> 100,> 83.8 µM (inactive),> 73.6 µM (inactive),> 100 µM (inactive),> 100 µM (inactive),> 100 µM (inactive),> 100 µM (inactive),> 100 µM (inactive)
CC(C)(C)C1CCC2c3c([nH]c4ccccc34)C3C(=O)N(c4ccccc4[N+](=O)[O-])C(=O)C3C2C1 (stereo not drawn),1.71 µM (inactive),11.9 µM (inactive),8.39 µM (inactive),4.14 µM (inactive),16.9 µM (inactive),16.6 µM (inactive),12.6 µM (inactive),12.7 µM (inactive),19.1 µM (inactive),> 10 µM (inactive),9.64 µM (inactive),3.1 µM (inactive),11.2,7.48 µM (inactive),7 µM (inactive),15.5 µM (inactive),37.5 µM (inactive),21.5 µM (inactive),7.6 µM (inactive),
COc1ccc(Nc2nc(N)c(C(=O)c3ccco3)s2)cc1,> 92.7 µM (inactive),32.5 µM (inactive),38.4 µM (inactive),15.7 µM (inactive),> 83.2 µM (inactive),> 100 µM (inactive),5.47 µM (inactive),26.1 µM (inactive),3.15 µM (inactive),3.61 µM (inactive),0.955 µM (active),6.81 µM (inactive),6.58,9.23 µM (inactive),27.3 µM (inactive),13.2 µM (inactive),35 µM (inactive),16.6 µM (inactive),53.6 µM (inactive),> 88.7 µM (inactive)
Cc1coc2c1C(OC(=O)C(C)C)C1(C)C(C)CCC(O)C1C2=O (stereo not drawn),> 100 µM (inactive),> 100 µM (inactive),> 100 µM (inactive),> 91.4 µM (inactive),> 100 µM (inactive),> 100 µM (inactive),57.4 µM (inactive),> 100 µM (inactive),> 100 µM (inactive),93.1 µM (inactive),51.2 µM (inactive),98.2 µM (inactive),> 100,> 100 µM (inactive),> 100 µM (inactive),> 100 µM (inactive),> 100 µM (inactive),> 100 µM (inactive),97.9 µM (inactive),> 100 µM (inactive)
O=C1/C(=C/c2ccc([N+](=O)[O-])cc2)CNC/C1=C\c1ccc([N+](=O)[O-])cc1,22.1 µM (inactive),2.09 µM (inactive),10.8 µM (inactive),5.62 µM (inactive),22.8 µM (inactive),3.13 µM (inactive),0.229 µM (active),5.09 µM (inactive),10.4 µM (inactive),2.22 µM (inactive),0.241 µM (active),2.74 µM (inactive),1.13,0.63 µM (active),17.5 µM (inactive),16.6 µM (inactive),48 µM (inactive),2.09 µM (inactive),6.7 µM (inactive),1.82 µM (inactive)
C=CCc1cccc2cc(C(=O)NCc3ccccc3)c(=N)oc12,48.5 µM (inactive),42.7 µM (inactive),37.1 µM (inactive),25.1 µM (inactive),54 µM (inactive),43.9 µM (inactive),32.6 µM (inactive),34.2 µM (inactive),25.8 µM (inactive),> 100 µM (inactive),> 100 µM (inactive),47.8 µM (inactive),32.2,24.2 µM (inactive),40.1 µM (inactive),23.4 µM (inactive),46.2 µM (inactive),47.5 µM (inactive),18.6 µM (inactive),30.7 µM (inactive)
O=C([O-])C(O)C(O)C(O)C(O)C(=O)O.[K+] (stereo not drawn),> 100 µM (inactive),> 100 µM (inactive),> 100 µM (inactive),> 100 µM (inactive),> 100 µM (inactive),> 100 µM (inactive),> 100 µM (inactive),> 100 µM (inactive),> 100 µM (inactive),> 100 µM (inactive),> 100 µM (inactive),> 100 µM (inactive),> 100,> 100 µM (inactive),> 100 µM (inactive),> 100 µM (inactive),> 100 µM (inactive),> 100 µM (inactive),> 100 µM (inactive),> 100 µM (inactive)
COc1ccc(CCNC2=CC(=O)c3ncccc3C2=O)cc1OC,8.95 µM (inactive),0.426 µM (active),1.67 µM (inactive),1.94 µM (inactive),2.7 µM (inactive),2.54 µM (inactive),5.9 µM (inactive),2.28 µM (inactive),0.471 µM (active),5.05 µM (inactive),4.24 µM (inactive),1.38 µM (inactive),0.918,2.51 µM (inactive),0.918 µM (active),1.82 µM (inactive),10.2 µM (inactive),2.07 µM (inactive),2.54 µM (inactive),1.47 µM (inactive)
CC(C)(C)O/N=C/c1cc(NC(=S)c2ccccc2)ccc1Cl,14.9 µM (inactive),15.7 µM (inactive),17.3 µM (inactive),11.3 µM (inactive),23.8 µM (inactive),17.9 µM (inactive),23 µM (inactive),15.6 µM (inactive),27.2 µM (inactive),8.71 µM (inactive),15.1 µM (inactive),22.9 µM (inactive),15.1,12.3 µM (inactive),15.7 µM (inactive),13.6 µM (inactive),29.4 µM (inactive),25.7 µM (inactive),16.4 µM (inactive),14 µM (inactive)
